Results published in patent US20080268028A1, “Lyophilization of virosomes” (Pevion Biotech Ltd., priority 2004, published 2008).

Experiment: Virosomal fusion activity before and after lyophilization (FRET assay)
Conditions: cationic lipid as integral virosomal membrane component; after lyophilization and reconstitution
Experimental: FRET Assay: For in vitro fusion measurements by fluorescence resonance energy transfer (FRET) (Struck et al., Biochemistry 20(14):4093-99, 1981; Loyter et al., Methods Biochem. Anal. 33:129-64, 1988), the following assay was developed: 0.75 mol % of Bodipy 530/550-DHPE and 0.25 mol % of N-Rh-DHPE were incorporated into liposomes consisting of PC/DPPG (70:30). Fluorescence measurements were carried out at discrete temperatures between 4° C. and 42° C. in 5 mM sodium phosphate buffer pH 7.5, 100 mM NaCl, in a final volume of 0.8 ml in 2.5 ml PMMA micro-cuvettes (VWR, Switzerland) under continuous stirring. […] The increase in fluorescence was recorded every 5 seconds at excitation and emission wavelengths of 538 nm and 558 nm, respectively, with an excitation slit of 2.5 nm and an emission slit of 15.0 nm. Measurements were carried out with an LS 55 Luminescence spectrometer (Perkin Elmer Instruments, USA) equipped with a thermostated cuvette holder and a magnetic stirring device. The maximal fluorescence at infinite probe dilution was reached after addition of Triton X-100 (0.5% v/v final concentration). For calibration of the fluorescence scale the initial residual fluorescence of the liposomes was set to zero and the fluorescence at infinite probe dilution to 100%.

Compound | preservation of virosomal fusion-activity
CC(C)CCC[C@@H](C)[C@H]1CC[C@H]2[C@@H]3CC=C4C[C@@H](OC(=O)NCCN(C)C)CC[C@]4(C)[C@H]3CC[C@]12C.Cl [DC-Chol, 3β[N-(N′,N′-dimethylammonioethane)-carbamoyl]cholesterol chloride] | superior properties in preserving virosomal fusion-activity
CC(C)CCC[C@@H](C)[C@H]1CC[C@H]2[C@@H]3CC=C4C[C@@H](OC(=O)NCC[N+](C)(C)C)CC[C@]4(C)[C@H]3CC[C@]12C.[Cl-] [TC-Chol, 3β[N-(N′,N′,N′-trimethylammonioethane)-carbamoyl]cholesterol chloride] | superior properties in preserving virosomal fusion-activity
